Like-named read-outs stand apart in the source and are kept apart here. Numbered stars: 1 amine (or outer) side, 2 acyl side, 3 side chain; on linkers, the order of the positions; unused ones are H or OH. Side chains are listed from the residue outwards. Peptide text beside a SMILES is read from it. * marks the point of attachment. X1 = C[C@H](NC(=O)[C@@H]1CCCN1C(=O)[C@@H](N)CSC1CC(=O)N(CCC(=O)*)C1=O)C(=O)N[C@@H](CCCCN)C(=O)O; C18 diacid = O=C(O)CCCCCCCCCCCCCCCCC(=O)*; γGlu = O=C(O)[C@H](CCC(=O)[*:2])N[*:1]; Fumaroyl = O=C(O)/C=C/C(=O)*; Suc = O=C(CCC(=O)[*:2])[*:1]; Lauroyl = CCCCCCCCCCCC(=O)*; AEEA = NCCOCCOCC(=O)O
How the values were obtained:
mouse ETB receptor = biological target: T1, mouse ETB receptor (Mus musculus, UniProt P48302); test: Determination of EC50s of polypeptides against mouse ETB receptor; format: cell-based; conditions: Table 9, mouse ETB receptor; read-out: DETAR Agonist Activity EC50
T1 construct: expressed in transfected cells
T1 sequence (P48302 27-442): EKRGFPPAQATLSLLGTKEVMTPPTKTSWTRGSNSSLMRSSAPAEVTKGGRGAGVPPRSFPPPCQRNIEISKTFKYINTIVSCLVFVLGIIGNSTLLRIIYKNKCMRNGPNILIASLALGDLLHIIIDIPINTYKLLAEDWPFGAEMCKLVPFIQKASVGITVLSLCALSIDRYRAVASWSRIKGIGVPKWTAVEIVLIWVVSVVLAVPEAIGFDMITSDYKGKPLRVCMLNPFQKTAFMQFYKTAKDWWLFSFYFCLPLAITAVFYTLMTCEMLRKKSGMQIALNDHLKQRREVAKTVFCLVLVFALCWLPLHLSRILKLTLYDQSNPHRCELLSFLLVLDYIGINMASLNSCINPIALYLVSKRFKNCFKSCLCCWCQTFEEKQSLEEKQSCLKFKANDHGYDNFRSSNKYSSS

BDNF = BDNF protein expression in infarcted brain tissue, mouse model of tMCAO (ELISA); format: in vivo, C57/6J mice
Description: Fifty-one male C57/6J mice, aged 10-12 weeks, weighing 25-30g, were housed for at least 2 days prior to the experiment to adapt to the environment (SPF Biotech). A mouse model of tMCAO was established. The mice were anesthetized with isoflurane. Their body temperature was controlled by a thermostatic blanket and monitored and maintained at 37±0.5°C. A middle incision was made in the skin on the mouse skull, the skin was pulled outward, and a bendable microneedle tip was fixed to the surface of the left parietal bone of the mouse skull. A middle incision on the neck was made to separate the right common carotid artery (CCA), external carotid artery (ECA) and internal carotid artery (ICA). […] To ensure a sustained and successful occlusion of the middle cerebral artery, we monitored local cerebral blood flow of all stroke animals with a laser speckle flowmeter (generally, the blood flow can be reduced by 40-60% after stabilized). […]
Successfully modeled C57 tMCAO mice were randomly assigned into three groups: a normal saline group, a 30µg/Kg BX229-Na administration group, and a 100µg/Kg BX229-Na administration group. […] Changes in protein markers VEGF-A and BDNF in each experimental group were detected by ELISA. […]

mouse model of dMACO = test: Cerebral blood flow perfusion in mouse model of dMACO (laser speckle flowmeter); format: in vivo, C57 BL/6 mice
Source text: Eight-week-old male C57 BL/6 mice were used and acclimated for at least 3 days. On the day of experiment, the mice were anesthetized with isoflurane, and an incision of approximately 2 cm in length was made in the middle of the […]. The mice were placed under a laser speckle flowmeter to capture a video of blood flow on both sides of the brain as images of pre-ischemic blood flow perfusion. Subsequently, a skull incision (3 mm×1.5 mm) was made at the right rear of the intersection of the sagittal suture and the coronal suture with a skull drill. The distal end of the right middle cerebral artery was located under a microscope, and a No.11 suture was used to ligate the middle artery. Meanwhile, the right common carotid artery was separated and ligated. A video of blood flow on both sides of the brain was captured again as images of post-ischemic blood flow perfusion. The scalp was sutured, and the animals were rewarmed in a rewarming box. Successfully modeled dMACO mice were randomly assigned to single-dose BX-34 groups of 7, 14, and 42 µg/Kg, single-dose IRL1620 groups of 5 and 10 µg/Kg, a three-dose IRL1620 group of 10 µg/Kg, and a normal saline control group. The single-dose groups were administered via tail vein 1 h after modeling, while the three-dose group was administered via tail vein at 1 hour, 3 hours, and 5 hours after modeling. A video of blood flow on both sides of the brain of each animal was captured again at 24 hours, 48 hours, and D7 after administration. During data analysis, the ROI was introduced or the area requiring blood flow calculation was selected. The average blood flow of the selected area was calculated by double-clicking on the blood flow image. Ratios of the average blood flow perfusions on right brain after modeling, and 24 hours, 48 hours and D7 after administration, to the average blood flow on right brain before modeling were used for statistical analysis of each group.

rat model of pMACO = test: Grip strength test in rat model of pMACO; format: in vivo, SD rats
SD rats = test system: SD rats
Description: Male SD rats were anesthetized with isoflurane, and their neck hairs were shaved. A midline incision was made on the neck to expose the trachea. A ventilator and anesthesia machine for small animals were turned on, with concentration of an anesthetic gas set to 1.2, and its exit channel connected to an inlet of the ventilator. Tidal volume of the ventilator was set to 2 mL, the respiratory rate was 90 breaths/minute, and the respiratory ratio was 1:2. An outlet end of the ventilator was connected to a plastic hose, which was inserted into the rat's airway.
A machine and a software of a biological signal data acquisition and analysis system were turned on. One end of a data acquisition plate was connected to the plastic hose, and the other end was connected to a collector valve connected with a 1-mL syringe. The syringe was filled with heparinized saline, which was injected into the data acquisition plate to expel the air in the entire space until the heparinized saline flowed out from the other end of the plastic hose. The right common carotid arteries of the rats were isolated. A dead knot was made at the distal end and a slipknot at the proximal end of a right common carotid artery. A 1/2-sized incision was made in the artery between the knot with a microscissor, and the plastic hose with heparinized saline was inserted into the incision and fixed to prevent back-and-forth movement. The initial value of the blood pressure was set to zero with the zero-adjustment valve of the biological signal data acquisition and analysis system. The slipknot at the proximal end of the common carotid artery was untied, and real-time blood pressure data of the animal appeared on the software. […] The dosages of IRL1620, BX34, and BX229 were 5 µg/Kg, 42 µg/kg, and 6.6 µg/Kg, respectively.

[1] = pMACO rats, 3 administrations (2, 4, 6 h after modeling), IRL1620 5µg/Kg, BX34 7µg/Kg, BX48 5µg/Kg
[2] = SD rats, tail vein, IRL620 5 µg/Kg, BX34 42 µg/Kg, BX229 6.6 µg/Kg
[3] = intravenous, IRL1620 5 µg/Kg, BX34 42 µg/Kg, BX229 6.6 µg/Kg

`CCCCCCCCCCCC(=O)N[C@@H](CCC(=O)NCCOCCOCC(=O)NCCCC[C@H](NC(=O)[C@H](Cc1c[nH]cn1)NC(=O)[C@H](C)NC(=O)[C@H](Cc1ccccc1)NC(=O)[C@H](Cc1ccc(O)cc1)NC(=O)[C@@H](NC(=O)[C@H](C)NC(=O)[C@H](CCC(=O)O)NC(=O)[C@H](CCC(=O)O)NC(=O)[C@H](CC(=O)O)NC(=O)/C=C/C(=O)O)C(C)C)C(=O)N[C@@H](CC(=O)O)C(=O)N[C@H](C(=O)N[C@H](C(=O)N[C@@H](Cc1c[nH]c2ccccc12)C(=O)O)[C@@H](C)CC)C(C)C)C(=O)O` [BX229-Na] (Fumaroyl-DEEAVYFAHK([AEEA-γGlu-Lauroyl])DVIW-OH) was tested, and the EC50 (mouse ETB receptor) was 9.05 nM, the “expression level of BDNF protein compared with the normal saline group” value (BDNF; 30µg/Kg three-dose group) was “higher than that in the normal saline group” and the “expression level of BDNF protein compared with the normal saline group” value (BDNF; 100µg/Kg three-dose group) was “higher than that in the normal saline group”.
With `CC[C@H](C)[C@H](NC(=O)[C@H](CC(=O)O)NC(=O)[C@H](CCCCNC(=O)COCCOCCNC(=O)COCCOCCNC(=O)CC[C@H](NC(=O)CCCCCCCCCCCCCCCCC(=O)O)C(=O)O)NC(=O)[C@H](Cc1c[nH]cn1)NC(=O)[C@H](C)NC(=O)[C@H](Cc1ccccc1)NC(=O)[C@H](Cc1ccc(O)cc1)NC(=O)[C@@H](NC(=O)[C@H](C)NC(=O)[C@H](CCC(=O)O)NC(=O)[C@H](CCC(=O)O)NC(=O)[C@H](CC(=O)O)NC(=O)/C=C/C(=O)O)C(C)C)C(=O)N[C@H](C(=O)N[C@@H](Cc1c[nH]c2ccccc12)C(=O)O)[C@@H](C)CC` [BX-34] (Fumaroyl-DEEAVYFAHK([AEEA-AEEA-γGlu-C18 diacid])DIIW-OH) the “cerebral blood flow perfusion amount compared to the normal saline group” value (mouse model of dMACO; dMCAO mice, single dose of 42 µg/kg via tail vein, 24 hours, 48 hours and D7 after administration) was “significantly increased”, the “Grip Strength Test 3D/pre” value (rat model of pMACO; rat, in vivo) was 63% ±14% and the “Grip Strength Test 7D/pre” value (rat model of pMACO; rat, in vivo) was 67% ±19%. The “Grip Strength Test 24h/pre” value (rat model of pMACO; rat, in vivo) was 40% ±24%, the “maximum extent of decrease in blood pressure, of the baseline blood pressure” value (SD rats; rat, in vivo) was 9.5%±1.7% and the “time to the lowest blood pressure” value (SD rats; rat, in vivo) was 20 to 35 min. The “Maximum percentage of blood pressure reduction relative to baseline blood pressure (n = 3)” value (SD rats; rat, in vivo, iv) was 9.5%±1.7% and the “Time from baseline blood pressure to the lowest blood pressure” value (SD rats; rat, in vivo, iv) was 20 to 35 min.
With `CC[C@H](C)[C@H](NC(=O)[C@H](CC(=O)O)NC(=O)[C@H](CCCCNC(=O)COCCOCCNC(=O)CCN1C(=O)CC(SC[C@H](N)C(=O)N2CCC[C@H]2C(=O)N[C@@H](C)C(=O)N[C@@H](CCCCN)C(=O)O)C1=O)NC(=O)[C@H](Cc1c[nH]cn1)NC(=O)[C@H](C)NC(=O)[C@H](Cc1ccccc1)NC(=O)[C@H](Cc1ccc(O)cc1)NC(=O)[C@@H](NC(=O)[C@H](C)NC(=O)[C@H](CCC(=O)O)NC(=O)[C@H](CCC(=O)O)NC(=O)[C@H](CC(=O)O)NC(=O)/C=C/C(=O)O)C(C)C)C(=O)N[C@H](C(=O)N[C@@H](Cc1c[nH]c2ccccc12)C(=O)O)[C@@H](C)CC` (stereo partly drawn) [BX-95] (Fumaroyl-DEEAVYFAHK([AEEA-X1])DIIW-OH) the EC50 (mouse ETB receptor) was 22.1 nM.
`CC[C@H](C)[C@H](NC(=O)[C@H](CC(=O)O)NC(=O)[C@H](CC(C)C)NC(=O)[C@H](Cc1c[nH]cn1)NC(=O)[C@H](C)NC(=O)[C@H](Cc1ccccc1)NC(=O)[C@H](Cc1ccc(O)cc1)NC(=O)[C@@H](NC(=O)[C@H](C)NC(=O)[C@H](CCC(=O)O)NC(=O)[C@H](CCC(=O)O)NC(=O)[C@H](CC(=O)O)NC(=O)CCC(=O)O)C(C)C)C(=O)N[C@H](C(=O)N[C@@H](Cc1c[nH]c2ccccc12)C(=O)O)[C@@H](C)CC` [IRL1620, reference compound] (Suc-DEEAVYFAHLDIIW-OH) was tested, and the “cerebral blood flow perfusion amount compared to the normal saline group” value (mouse model of dMACO; dMCAO mice, single dose of 5 µg/kg via tail vein) was “no significant differences”, the “cerebral blood flow perfusion amount compared to the normal saline group” value (mouse model of dMACO; mouse, in vivo) was “no significant differences” and the “Grip Strength Test 3D/pre” value (rat model of pMACO; [1]) was 57%±11%. The “Grip Strength Test 7D/pre” value (rat model of pMACO; [1]) was 61%+13%, the “Grip Strength Test 24h/pre” value (rat model of pMACO; [1]) was 47% ±27% and the “maximum extent of decrease in blood pressure, of the baseline blood pressure” value (SD rats; [2]) was 16.1%±2.4%. For the same compound, the “time to the lowest blood pressure” value (SD rats; [2]) was ≤ 2 min, the “Maximum percentage of blood pressure reduction relative to baseline blood pressure (n = 3)” value (SD rats; [3]) was 16.1%±2.4% and the “Time from baseline blood pressure to the lowest blood pressure” value (SD rats; [3]) was “Less than 2 mins”.
